Results from patent US20100077512A1 (priority 2006, published 2010).
Blank lines part the entries; values can stand above or below the compound they belong to.

How the values were obtained:
[1] = test system: tobacco budworm (Heliothis virescens); settings: 2500 ppm, eggs sprayed, 6 days
Experimental: 15 to 25 eggs were placed into microtiterplates filled with diet. The eggs were sprayed with 10 μl of the test solution, the plates were sealed with pierced foils and kept at 27-29° C. and 75-85% humidity under fluorescent light for 6 days. Mortality was assessed on the basis of the agility and of comparative feeding of the hatched larvae. Tests were replicated 2 times.

[2] = test system: Mediterranean fruitfly (Ceratitis capitata); settings: 2500 ppm, eggs sprayed, 6 days

melting point: 120 to 122 °C
Compound: O=S(=O)(NCc1ccnnc1)c1cc(Br)cs1

Compound: N#Cc1ccc(-c2ccc(S(=O)(=O)NCc3ccnnc3)cc2)cc1 [Example 11]
mortality [1]: at least 75%

Compound: O=S(=O)(NCc1ccnnc1)c1ccc(-c2ccc(Cl)cc2)nc1 [Example 60]
mortality [2]: at least 75%
